Test results taken from US4382922A, “Peptides affecting gonadal function” (The Salk Institute for Biological Studies, priority 1982, dated 1983).
Several values for one entry are separate records, joined by “and”; a condition that tells them apart may be missing. Equal values may be shown once.

These molecules were tested on dispersed rat pituitary cells. Settings: not given.
Type: cell-based
Experimental: The peptides prepared in the foregoing Example I are assayed in vitro using a four-day-old primary culture of dispersed rat pituitary cells and compared with LRF. The levels of LH secreted over a 4-hour period in response to the application of peptides are assayed by specific radioimmunoassay for rat LH. The results of testing are expressed in the tables herebelow: […]
CC(C)C[C@H](NC(=O)CNC(=O)[C@H](Cc1ccc(O)cc1)NC(=O)[C@H](CO)NC(=O)[C@H](Cc1c[nH]c2ccccc12)NC(=O)[C@H](Cc1c[nH]cn1)NC(=O)[C@@H]1CCC(=O)N1)C(=O)N[C@@H](CCCNC(=N)N)C(=O)N1CCC[C@H]1C(=O)NCC(N)=O [LRF, p-Glu-His-Trp-Ser-Tyr-Gly-Leu-Arg-Pro-Gly-NH2, reference compound] was tested, and the “NANOGRAMS OF LH SECRETED/ml. 4 hr.” value was 898 and 1240 and 1702.

Same assay, conditions: in vitro LH release, LRF = 1; confidence limits in parentheses
In the case of CCNC(=O)[C@@H]1CCCN1C(=O)[C@H](CCCNC(=N)N)NC(=O)[C@H](CC(C)C)NC(=O)[C@@H](Cc1ccc(OC)cc1)NC(=O)[C@H](Cc1ccc(O)cc1)NC(=O)[C@H](CO)NC(=O)[C@H](Cc1c[nH]c2ccccc12)NC(=O)[C@H](Cc1c[nH]cn1)NC(=O)[C@@H]1CCC(=O)N1 [Peptide No. 2, [OCH3 -D-Phe^6, Pro^9 -NEt]-LRF], the “Potency (relative to LRF)” value is reported as 130(72-242).
For CCNC(=O)[C@@H]1CCCN1C(=O)[C@H](CCCNC(=N)N)NC(=O)[C@H](CC(C)C)NC(=O)[C@@H](Cc1c(C)c(C)c(C)c(C)c1C)NC(=O)[C@H](Cc1ccc(O)cc1)NC(=O)[C@H](CO)NC(=O)[C@H](Cc1c[nH]c2ccccc12)NC(=O)[C@H](Cc1c[nH]cn1)NC(=O)[C@@H]1CCC(=O)N1 [Peptide No. 7, [pentamethyl-D-Phe^6, Pro^9 -NEt]-LRF], the “Potency (relative to LRF)” value was 86(50-145).
CCNC(=O)[C@@H]1CCCN1C(=O)[C@H](CCCNC(=N)N)NC(=O)[C@H](CC(C)C)NC(=O)[C@@H](Cc1ccc(OC)cc1)NC(=O)[C@H](Cc1ccc(O)cc1)NC(=O)[C@H](CO)NC(=O)[C@H](Cc1c[nH]c2ccccc12)NC(=O)[C@H](Cc1c[nH]cn1)NC(=O)[C@@H]1CCC(=O)N1 [[OCH3 -D-Phe^6, Pro^9 -NEt]-LRF] was tested, and the “Potency (relative to LRF)” value was “about 130”.
In the case of CCNC(=O)[C@@H]1CCCN1C(=O)[C@H](CCCNC(=N)N)NC(=O)[C@H](CC(C)C)NC(=O)[C@@H](Cc1c(C)c(C)c(C)c(C)c1C)NC(=O)[C@H](Cc1ccc(O)cc1)NC(=O)[C@H](CO)NC(=O)[C@H](Cc1c[nH]c2ccccc12)NC(=O)[C@H](Cc1c[nH]cn1)NC(=O)[C@@H]1CCC(=O)N1 [[pentamethyl-D-Phe^6, Pro^9 -NEt]-LRF], the “Potency (relative to LRF)” value is reported as “about 86”.
In the case of CCNC(=O)[C@@H]1CCCN1C(=O)[C@H](CCCNC(=N)N)NC(=O)[C@H](CC(C)C)NC(=O)[C@@H](Cc1ccc([N+](=O)[O-])cc1)NC(=O)[C@H](Cc1ccc(O)cc1)NC(=O)[C@H](CO)NC(=O)[C@H](Cc1c[nH]c2ccccc12)NC(=O)[C@H](Cc1c[nH]cn1)NC(=O)[C@@H]1CCC(=O)N1 [compound 1, [pNO2 -D-Phe^6, Pro^9 -NEt]-LRF], the “Potency (relative to LRF)” value is reported as 141 (83-297).
For CCNC(=O)[C@@H]1CCCN1C(=O)[C@H](CCCNC(=N)N)NC(=O)[C@H](CC(C)C)NC(=O)[C@@H](Cc1ccc(C)cc1)NC(=O)[C@H](Cc1ccc(O)cc1)NC(=O)[C@H](CO)NC(=O)[C@H](Cc1c[nH]c2ccccc12)NC(=O)[C@H](Cc1c[nH]cn1)NC(=O)[C@@H]1CCC(=O)N1 [compound 3], the “Potency (relative to LRF)” value was 143 (79-268).
With CCNC(=O)[C@@H]1CCCN1C(=O)[C@H](CCCNC(=N)N)NC(=O)[C@H](CC(C)C)NC(=O)[C@@H](Cc1ccc(Cl)cc1)NC(=O)[C@H](Cc1ccc(O)cc1)NC(=O)[C@H](CO)NC(=O)[C@H](Cc1c[nH]c2ccccc12)NC(=O)[C@H](Cc1c[nH]cn1)NC(=O)[C@@H]1CCC(=O)N1 [compound 4] the “Potency (relative to LRF)” value was 59 (29-120).
For CCNC(=O)[C@@H]1CCCN1C(=O)[C@H](CCCNC(=N)N)NC(=O)[C@H](CC(C)C)NC(=O)[C@@H](Cc1ccc(Cl)c(Cl)c1)NC(=O)[C@H](Cc1ccc(O)cc1)NC(=O)[C@H](CO)NC(=O)[C@H](Cc1c[nH]c2ccccc12)NC(=O)[C@H](Cc1c[nH]cn1)NC(=O)[C@@H]1CCC(=O)N1 [compound 5], the “Potency (relative to LRF)” value was 38 (16-82).
CCNC(=O)[C@@H]1CCCN1C(=O)[C@H](CCCNC(=N)N)NC(=O)[C@H](CC(C)C)NC(=O)[C@@H](Cc1ccc(NC(C)=O)cc1)NC(=O)[C@H](Cc1ccc(O)cc1)NC(=O)[C@H](CO)NC(=O)[C@H](Cc1c[nH]c2ccccc12)NC(=O)[C@H](Cc1c[nH]cn1)NC(=O)[C@@H]1CCC(=O)N1 [compound 6] was tested, and the “Potency (relative to LRF)” value was 36 (21-69).
CCNC(=O)[C@@H]1CCCN1C(=O)[C@H](CCCNC(=N)N)NC(=O)[C@H](CC(C)C)NC(=O)[C@@H](Cc1ccccc1)NC(=O)[C@H](Cc1ccc(O)cc1)NC(=O)[C@H](CO)NC(=O)[C@H](Cc1c[nH]c2ccccc12)NC(=O)[C@H](Cc1c[nH]cn1)NC(=O)[C@@H]1CCC(=O)N1 [compound 8] was tested, and the “Potency (relative to LRF)” value was 78 (46-132).
